Laboratory results from US20020137929A1, “1 - (3-heterocyclylphenyl) isothiourea, -isourea, -guanidine and -amidine herbicidal agents” (Intellectual Property Department, BASF Aktiengesellschaft, priority 1998, published 2002).

Experiments:
[1] = test system: GALAP (Galium); assay: Preemergence herbicidal evaluation; format: in vivo, Galium aparine; conditions: rated 4-5 weeks after treatment, rating scale 0-9
Outline: (§1)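 Sown cups got a single aqueous acetone spray of test compound (roughly 0.0156–0.500 kg/ha) before seedlings emerged. Evaluation, 4–5 weeks on, used a 0–9 visual scale covering plant stand, vigor, size, malformation, chlorosis and general appearance compared with controls.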

[2] = test system: GLXMAW (Soybean, Williams); assay: Postemergence herbicidal evaluation; format: in vivo, Glycine max, (L.) Merr. cv Williams; conditions: postemergence
Outline: (§2)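 Two-week-old seedlings sprayed with compound in 50/50 acetone/water plus 0.5% TWEEN 20, at about 0.0156 to 0.500 kg/ha, nozzle at 40 psi. Kept in greenhouse; rated visually 4-5 weeks after treatment on a 0-9 scale versus control, repeat tests averaged.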

[3] = test system: CASOB (Sicklepod); assay: Postemergence herbicidal evaluation; format: in vivo, Cassia obtusifolia; conditions: postemergence
Outline: as §2

[4] = test system: ECHCG (Barnyardgrass); assay: Postemergence herbicidal evaluation; format: in vivo, Echinochloa crus-galli; conditions: postemergence
Outline: as §2

[5] = test system: CASOB (Sicklepod); assay: Preemergence herbicidal evaluation; format: in vivo, Cassia obtusifolia; conditions: rated 4-5 weeks after treatment, rating scale 0-9
Outline: as §1

[6] = test system: GALAP (Galium); assay: Postemergence herbicidal evaluation; format: in vivo, Galium aparine; conditions: postemergence
Outline: as §2

[7] = test system: CHEAL (Lambsquarters, Common); assay: Postemergence herbicidal evaluation; format: in vivo, Chenopodium album; conditions: postemergence
Outline: as §2

[8] = test system: ORYSAT (Rice, Tebonnet); assay: Postemergence herbicidal evaluation; format: in vivo, Oryza sativa, (L.) Tebonnet; conditions: postemergence
Outline: as §2

[9] = test system: SAGPY (Arrowhead (Pygmaea)); assay: Preemergence weed control under flooded paddy conditions; format: in vivo, Sagittaria pygmaea; conditions: rated 3-4 weeks after treatment
Outline: (§3)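 Seeds or propagules sown in silt loam kept flooded 1.5-3 cm; compounds in 50/50 acetone/water pipetted into flood water at about 0.0313 to 0.500 kg/ha. Greenhouse; visual 0-9 rating versus untreated control 3-4 weeks after treatment.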

[10] = test system: CYPSE (Flatsedge); assay: as above; format: in vivo, Cyperus serotinus; conditions: rated 3-4 weeks after treatment
Outline: as §3

[11] = test system: SETVI (Foxtail, Green); assay: Postemergence herbicidal evaluation; format: in vivo, Setaria viridis; conditions: postemergence
Outline: as §2

[12] = test system: CYPIR (Rice Flatsedge); assay: Preemergence weed control under flooded paddy conditions; format: in vivo, Cyperus iria; conditions: rated 3-4 weeks after treatment
Outline: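 First, seeds or propagules go into the top 0.5 cm of silt loam; next, water is held 1.5 to 3 cm over the soil; then compound (50/50 acetone/water) is pipetted into it at about 0.0313 to 0.500 kg/ha; finally plants are rated visually 0-9 after three to four weeks.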

[13] = test system: ZEAMX (Corn, Field); assay: Preemergence herbicidal evaluation; format: in vivo, Zea mays; conditions: rated 4-5 weeks after treatment, rating scale 0-9
Outline: as §1

[14] = test system: AMBEL (Ragweed, Common); assay: Postemergence herbicidal evaluation; format: in vivo, Ambrosia artemisifolia; conditions: postemergence
Outline: as §2

For `Cn1c(C(F)(F)F)cc(=O)n(-c2cc(N=C3SCC(=O)N3Cc3ccc(C(F)(F)F)cc3)c(Cl)cc2F)c1=O` [Compound 141, 3-{4-Chloro-2-fluoro-5-{{3-[p-(trifluoromethyl)benzyl]-4-oxo-2-thiazolidinylidene}-amino}phenyl}-1-methyl-6-(trifluoromethyl)-2,4 (1H, 3H)-pyrimidinedione], the “Preemergence herbicidal rating GALAP” value ([1]; rate 0.0156 kg/ha) was 0.0, the “Preemergence herbicidal rating GALAP” value ([1]; rate 0.0313 kg/ha) was 0.0 and the “Preemergence herbicidal rating GALAP” value ([1]; rate 0.0625 kg/ha) was 0.0. The “Preemergence herbicidal rating GALAP” value ([1]; rate 0.1250 kg/ha) was 0.0, the “Preemergence herbicidal rating GALAP” value ([1]; rate 0.2500 kg/ha) was 0.0 and the “Herbicidal rating GLXMAW” value ([2]; rate 0.0156 kg/ha) was 4.0. For the same compound, the “Herbicidal rating GLXMAW” value ([2]; rate 0.0313 kg/ha) was 4.0, the “Herbicidal rating GLXMAW” value ([2]; rate 0.0625 kg/ha) was 4.5 and the “Herbicidal rating CASOB” value ([3]; rate 0.0156 kg/ha) was 0.0. For the same compound, the “Herbicidal rating CASOB” value ([3]; rate 0.0313 kg/ha) was 0.0, the “Herbicidal rating CASOB” value ([3]; rate 0.0625 kg/ha) was 0.0 and the “Herbicidal rating ECHCG” value ([4]; rate 0.0156 kg/ha) was 0.0. For the same compound, the “Herbicidal rating ECHCG” value ([4]; rate 0.0313 kg/ha) was 0.0, the “Herbicidal rating ECHCG” value ([4]; rate 0.0625 kg/ha) was 0.0 and the “Preemergence herbicidal rating CASOB” value ([5]; rate 0.0156 kg/ha) was 0.0. For the same compound, the “Preemergence herbicidal rating CASOB” value ([5]; rate 0.0313 kg/ha) was 0.0, the “Preemergence herbicidal rating CASOB” value ([5]; rate 0.0625 kg/ha) was 0.0 and the “Preemergence herbicidal rating CASOB” value ([5]; rate 0.1250 kg/ha) was 0.0. For the same compound, the “Preemergence herbicidal rating CASOB” value ([5]; rate 0.2500 kg/ha) was 3.0, the “Herbicidal rating GALAP” value ([6]; rate 0.0156 kg/ha) was 0.0 and the “Herbicidal rating GALAP” value ([6]; rate 0.0313 kg/ha) was 2.0. For the same compound, the “Herbicidal rating GALAP” value ([6]; rate 0.0625 kg/ha) was 2.0, the “Herbicidal rating CHEAL” value ([7]; rate 0.0156 kg/ha) was 3.0 and the “Herbicidal rating CHEAL” value ([7]; rate 0.0313 kg/ha) was 5.0. The “Herbicidal rating CHEAL” value ([7]; rate 0.0625 kg/ha) was 9.0, the “Herbicidal rating ORYSAT” value ([8]; rate 0.0156 kg/ha) was 0.5 and the “Herbicidal rating ORYSAT” value ([8]; rate 0.0313 kg/ha) was 1.5. For the same compound, the “Herbicidal rating ORYSAT” value ([8]; rate 0.0625 kg/ha) was 2.0, the “herbicidal effect rating, SAGPY” value ([9]; 0.0313 kg/ha) was 4.0 and the “herbicidal effect rating, SAGPY” value ([9]; 0.0625 kg/ha) was 5.0. The “herbicidal effect rating, SAGPY” value ([9]; 0.1250 kg/ha) was 5.0, the “herbicidal effect rating, SAGPY” value ([9]; 0.2500 kg/ha) was 6.0 and the “herbicidal effect rating, CYPSE” value ([10]; 0.0313 kg/ha) was 0.0. For the same compound, the “herbicidal effect rating, CYPSE” value ([10]; 0.0625 kg/ha) was 0.0, the “herbicidal effect rating, CYPSE” value ([10]; 0.1250 kg/ha) was 0.0 and the “herbicidal effect rating, CYPSE” value ([10]; 0.2500 kg/ha) was 0.0. The “Herbicidal rating SETVI” value ([11]; rate 0.0156 kg/ha) was 0.0, the “Herbicidal rating SETVI” value ([11]; rate 0.0313 kg/ha) was 0.0 and the “Herbicidal rating SETVI” value ([11]; rate 0.0625 kg/ha) was 0.0. The “herbicidal effect rating, CYPIR” value ([12]; 0.0313 kg/ha) was 4.0, the “herbicidal effect rating, CYPIR” value ([12]; 0.0625 kg/ha) was 5.0 and the “herbicidal effect rating, CYPIR” value ([12]; 0.1250 kg/ha) was 6.0. For the same compound, the “herbicidal effect rating, CYPIR” value ([12]; 0.2500 kg/ha) was 6.0, the “Preemergence herbicidal rating ZEAMX” value ([13]; rate 0.0156 kg/ha) was 0.0 and the “Preemergence herbicidal rating ZEAMX” value ([13]; rate 0.0313 kg/ha) was 0.0. The “Preemergence herbicidal rating ZEAMX” value ([13]; rate 0.0625 kg/ha) was 0.0, the “Preemergence herbicidal rating ZEAMX” value ([13]; rate 0.1250 kg/ha) was 0.0 and the “Preemergence herbicidal rating ZEAMX” value ([13]; rate 0.2500 kg/ha) was 2.0. The “Herbicidal rating AMBEL” value ([14]; rate 0.0156 kg/ha) was 7.0, the “Herbicidal rating AMBEL” value ([14]; rate 0.0313 kg/ha) was 7.0 and the “Herbicidal rating AMBEL” value ([14]; rate 0.0625 kg/ha) was 9.0.
